Measured values: the NIST ThermoML archive (doi:10.1016/j.jct.2013.05.051)
Numbers after ± are expanded uncertainties.

Assay: xn = mol fraction of the nth substance listed
Conditions: Liquid, Vibrating tube method, x2 = 0

SMILES: CCCCCCC [heptane] + CCCCCCCO
- mass density (298.15 K, 100 kPa): 679.5 ± 1.4 kg/m3
- mass density (298.15 K, 1000 kPa): 680.4 ± 1.4 kg/m3
- mass density (298.15 K, 5000 kPa): 684.2 ± 1.4 kg/m3
- mass density (298.15 K, 10000 kPa): 688.6 ± 1.4 kg/m3
- mass density (298.15 K, 15000 kPa): 692.8 ± 1.4 kg/m3
- mass density (298.15 K, 20000 kPa): 696.7 ± 1.5 kg/m3
- mass density (298.15 K, 25000 kPa): 700.4 ± 1.5 kg/m3
- mass density (298.15 K, 30000 kPa): 704 ± 1.5 kg/m3
- mass density (298.15 K, 35000 kPa): 707.4 ± 1.5 kg/m3
- mass density (298.15 K, 40000 kPa): 710.7 ± 1.5 kg/m3
- mass density (298.15 K, 45000 kPa): 713.8 ± 1.5 kg/m3
- mass density (298.15 K, 50000 kPa): 716.8 ± 1.5 kg/m3
- mass density (298.15 K, 55000 kPa): 719.7 ± 1.6 kg/m3
- mass density (298.15 K, 60000 kPa): 722.5 ± 1.6 kg/m3
- mass density (298.15 K, 65000 kPa): 725.2 ± 1.6 kg/m3
- mass density (298.15 K, 70000 kPa): 727.9 ± 1.6 kg/m3
- mass density (298.15 K, 80000 kPa): 732.9 ± 1.7 kg/m3
- mass density (298.15 K, 90000 kPa): 737.7 ± 1.7 kg/m3
- mass density (298.15 K, 100000 kPa): 742.3 ± 1.8 kg/m3
- mass density (298.15 K, 110000 kPa): 746.6 ± 1.8 kg/m3
- mass density (298.15 K, 120000 kPa): 750.7 ± 1.8 kg/m3
- mass density (298.15 K, 130000 kPa): 754.6 ± 1.9 kg/m3
- mass density (298.15 K, 140000 kPa): 758.4 ± 1.9 kg/m3
- mass density (313.15 K, 100 kPa): 666.6 ± 1.4 kg/m3
- mass density (313.15 K, 1000 kPa): 667.6 ± 1.4 kg/m3
- mass density (313.15 K, 5000 kPa): 671.8 ± 1.4 kg/m3
- mass density (313.15 K, 10000 kPa): 676.7 ± 1.4 kg/m3
- mass density (313.15 K, 15000 kPa): 681.3 ± 1.4 kg/m3
- mass density (313.15 K, 20000 kPa): 685.6 ± 1.5 kg/m3
- mass density (313.15 K, 25000 kPa): 689.5 ± 1.5 kg/m3
- mass density (313.15 K, 30000 kPa): 693.5 ± 1.5 kg/m3
- mass density (313.15 K, 35000 kPa): 697.1 ± 1.5 kg/m3
- mass density (313.15 K, 40000 kPa): 700.5 ± 1.5 kg/m3
- mass density (313.15 K, 45000 kPa): 703.9 ± 1.5 kg/m3
- mass density (313.15 K, 50000 kPa): 707.2 ± 1.6 kg/m3
- mass density (313.15 K, 55000 kPa): 710.3 ± 1.6 kg/m3
- mass density (313.15 K, 60000 kPa): 713.3 ± 1.6 kg/m3
- mass density (313.15 K, 65000 kPa): 716.1 ± 1.6 kg/m3
- mass density (313.15 K, 70000 kPa): 718.9 ± 1.6 kg/m3
- mass density (313.15 K, 80000 kPa): 724.2 ± 1.7 kg/m3
- mass density (313.15 K, 90000 kPa): 729.3 ± 1.7 kg/m3
- mass density (313.15 K, 100000 kPa): 734 ± 1.8 kg/m3
- mass density (313.15 K, 110000 kPa): 738.6 ± 1.8 kg/m3
- mass density (313.15 K, 120000 kPa): 742.8 ± 1.9 kg/m3
- mass density (313.15 K, 130000 kPa): 747 ± 1.9 kg/m3
- mass density (313.15 K, 140000 kPa): 751.1 ± 2 kg/m3
- mass density (333.15 K, 100 kPa): 648.9 ± 1.4 kg/m3
- mass density (333.15 K, 1000 kPa): 650 ± 1.4 kg/m3
- mass density (333.15 K, 5000 kPa): 655 ± 1.4 kg/m3
- mass density (333.15 K, 10000 kPa): 660.6 ± 1.4 kg/m3
- mass density (333.15 K, 15000 kPa): 665.8 ± 1.4 kg/m3
- mass density (333.15 K, 20000 kPa): 670.6 ± 1.5 kg/m3
- mass density (333.15 K, 25000 kPa): 675.1 ± 1.5 kg/m3
- mass density (333.15 K, 30000 kPa): 679.4 ± 1.5 kg/m3
- mass density (333.15 K, 35000 kPa): 683.4 ± 1.5 kg/m3
- mass density (333.15 K, 40000 kPa): 687.3 ± 1.5 kg/m3
- mass density (333.15 K, 45000 kPa): 690.9 ± 1.5 kg/m3
- mass density (333.15 K, 50000 kPa): 694.4 ± 1.6 kg/m3
- mass density (333.15 K, 55000 kPa): 697.7 ± 1.6 kg/m3
- mass density (333.15 K, 60000 kPa): 701 ± 1.6 kg/m3
- mass density (333.15 K, 65000 kPa): 704.1 ± 1.6 kg/m3
- mass density (333.15 K, 70000 kPa): 707.1 ± 1.7 kg/m3
- mass density (333.15 K, 80000 kPa): 712.8 ± 1.7 kg/m3
- mass density (333.15 K, 90000 kPa): 718.2 ± 1.8 kg/m3
- mass density (333.15 K, 100000 kPa): 723.2 ± 1.8 kg/m3
- mass density (333.15 K, 110000 kPa): 728.1 ± 1.8 kg/m3
- mass density (333.15 K, 120000 kPa): 732.6 ± 1.9 kg/m3
- mass density (333.15 K, 130000 kPa): 737 ± 1.9 kg/m3
- mass density (333.15 K, 140000 kPa): 741.1 ± 2 kg/m3
- mass density (353.15 K, 100 kPa): 631.2 ± 1.4 kg/m3
- mass density (353.15 K, 1000 kPa): 632.1 ± 1.4 kg/m3
- mass density (353.15 K, 5000 kPa): 637.8 ± 1.4 kg/m3
- mass density (353.15 K, 10000 kPa): 644.3 ± 1.4 kg/m3
- mass density (353.15 K, 15000 kPa): 650.3 ± 1.4 kg/m3
- mass density (353.15 K, 20000 kPa): 655.7 ± 1.5 kg/m3
- mass density (353.15 K, 25000 kPa): 660.8 ± 1.5 kg/m3
- mass density (353.15 K, 30000 kPa): 665.5 ± 1.5 kg/m3
- mass density (353.15 K, 35000 kPa): 670 ± 1.5 kg/m3
- mass density (353.15 K, 40000 kPa): 674.1 ± 1.5 kg/m3
- mass density (353.15 K, 45000 kPa): 678.1 ± 1.6 kg/m3
- mass density (353.15 K, 50000 kPa): 682 ± 1.6 kg/m3
- mass density (353.15 K, 55000 kPa): 685.5 ± 1.6 kg/m3
- mass density (353.15 K, 60000 kPa): 689.1 ± 1.6 kg/m3
- mass density (353.15 K, 65000 kPa): 692.4 ± 1.6 kg/m3
- mass density (353.15 K, 70000 kPa): 695.7 ± 1.7 kg/m3
- mass density (353.15 K, 80000 kPa): 701.7 ± 1.7 kg/m3
- mass density (353.15 K, 90000 kPa): 707.5 ± 1.8 kg/m3
- mass density (353.15 K, 100000 kPa): 712.8 ± 1.8 kg/m3
- mass density (353.15 K, 110000 kPa): 717.9 ± 1.9 kg/m3
- mass density (353.15 K, 120000 kPa): 722.7 ± 1.9 kg/m3
- mass density (353.15 K, 130000 kPa): 727.3 ± 2 kg/m3
- mass density (353.15 K, 140000 kPa): 731.6 ± 2 kg/m3
- mass density (373.15 K, 1000 kPa): 613.3 ± 1.4 kg/m3
- mass density (373.15 K, 5000 kPa): 620.1 ± 1.4 kg/m3
- mass density (373.15 K, 10000 kPa): 627.7 ± 1.4 kg/m3
- mass density (373.15 K, 15000 kPa): 634.5 ± 1.5 kg/m3
- mass density (373.15 K, 20000 kPa): 640.7 ± 1.5 kg/m3
- mass density (373.15 K, 25000 kPa): 646.3 ± 1.5 kg/m3
- mass density (373.15 K, 30000 kPa): 651.6 ± 1.5 kg/m3
- mass density (373.15 K, 35000 kPa): 656.5 ± 1.5 kg/m3
- mass density (373.15 K, 40000 kPa): 661.1 ± 1.5 kg/m3
- mass density (373.15 K, 45000 kPa): 665.5 ± 1.6 kg/m3
- mass density (373.15 K, 50000 kPa): 669.6 ± 1.6 kg/m3
- mass density (373.15 K, 55000 kPa): 673.5 ± 1.6 kg/m3
- mass density (373.15 K, 60000 kPa): 677.3 ± 1.6 kg/m3
- mass density (373.15 K, 65000 kPa): 680.8 ± 1.7 kg/m3
- mass density (373.15 K, 70000 kPa): 684.3 ± 1.7 kg/m3
- mass density (373.15 K, 80000 kPa): 690.8 ± 1.7 kg/m3
- mass density (373.15 K, 90000 kPa): 696.9 ± 1.8 kg/m3
- mass density (373.15 K, 100000 kPa): 702.6 ± 1.9 kg/m3
- mass density (373.15 K, 110000 kPa): 708 ± 1.9 kg/m3
- mass density (373.15 K, 120000 kPa): 713 ± 2 kg/m3
- mass density (373.15 K, 130000 kPa): 717.9 ± 2 kg/m3
- mass density (373.15 K, 140000 kPa): 722.3 ± 2.1 kg/m3
- mass density (393.15 K, 1000 kPa): 593.5 ± 1.4 kg/m3
- mass density (393.15 K, 5000 kPa): 601.7 ± 1.4 kg/m3
- mass density (393.15 K, 10000 kPa): 610.6 ± 1.4 kg/m3
- mass density (393.15 K, 15000 kPa): 618.4 ± 1.5 kg/m3
- mass density (393.15 K, 20000 kPa): 625.4 ± 1.5 kg/m3
- mass density (393.15 K, 25000 kPa): 631.7 ± 1.5 kg/m3
- mass density (393.15 K, 30000 kPa): 637.5 ± 1.5 kg/m3
- mass density (393.15 K, 35000 kPa): 643 ± 1.5 kg/m3
- mass density (393.15 K, 40000 kPa): 648 ± 1.6 kg/m3
- mass density (393.15 K, 45000 kPa): 652.8 ± 1.6 kg/m3
- mass density (393.15 K, 50000 kPa): 657.2 ± 1.6 kg/m3
- mass density (393.15 K, 55000 kPa): 661.5 ± 1.6 kg/m3
- mass density (393.15 K, 60000 kPa): 665.5 ± 1.7 kg/m3
- mass density (393.15 K, 65000 kPa): 669.3 ± 1.7 kg/m3
- mass density (393.15 K, 70000 kPa): 673.1 ± 1.7 kg/m3
- mass density (393.15 K, 80000 kPa): 680.1 ± 1.8 kg/m3
- mass density (393.15 K, 90000 kPa): 686.5 ± 1.8 kg/m3
- mass density (393.15 K, 100000 kPa): 692.5 ± 1.9 kg/m3
- mass density (393.15 K, 110000 kPa): 698.2 ± 1.9 kg/m3
- mass density (393.15 K, 120000 kPa): 703.4 ± 2 kg/m3
- mass density (393.15 K, 130000 kPa): 708.5 ± 2 kg/m3
- mass density (393.15 K, 140000 kPa): 713.4 ± 2.1 kg/m3
